Assay: Chemical stability of decitabine in cyclodextrin solutions (HPLC potency, % of total peak areas at 220 nm)
Format: physicochemical
Protocol: The chemical stability of decitabine in the cyclodextrin solutions and in the phophate buffer as prepared above was determined. The initial decitabine concentration for all the solutions was 17-18 mg/mL at the beginning of the experiment at 2-8° C.; 9-10 mg/mL at the beginning of the experiment at 25° C. Decitabine potency was assayed by a HPLC method, and expressed as a percentage of total peak areas at 220 nm.

Stability in aqueous solution with cyclodextrins as excipients (2-8° C., initial 17-18 mg/mL, FIG. 1): dramatically improve the stability | Stabilization effect at various HPBCD concentrations (25° C., FIG. 3): concentration dependent | Stability in aqueous solution with cyclodextrins as excipients (25° C., initial 9-10 mg/mL, FIG. 2): dramatically improve the stability
Compound: Nc1ncn([C@H]2C[C@H](O)[C@@H](CO)O2)c(=O)n1 [decitabine, 5-aza-2′-deoxycytidine]

From patent US20060128654A1, “Pharmaceutical formulation of cytidine analogs and derivatives” (priority 2004, published 2006)
